Experimental data taken from PubChem BioAssay AID2060618 (Molecular Pharmacology Branch, DTP, NCI, 2025).

System: 454973-116-R2-J3-PDC spheroids, percent test/control viability
Assay: Anticancer human tumor 454973-116-R2-J3-PDC patient-derived pancreatic carcinoma cell line growth inhibition [CLK]
Details: spheroids with HUVEC and MSC; for IC50: curve of first compound; for viability, T/C: stronger effect = lower value; active = viability on the fitted dose curve at most 10% of control; inactive = the rest
How it was run: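 Multi-cell-type spheroids combined patient-derived tumor cells with HUVEC endothelial cells and human mesenchymal stem cells. Paired agents were dosed in half-log steps down from about clinical Cmax, or from 10 microM where Cmax was unknown.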

[1] = second compound 0.0316 µM, first compound 0.0316 µM
[2] = second compound 0.0316 µM, first compound 0.1 µM
[3] = second compound 0.0316 µM, first compound 0.316 µM
[4] = second compound 0.0316 µM, first compound 1 µM
[5] = second compound 0.0316 µM, first compound 3.16 µM
[6] = second compound 0.0316 µM, first compound 10 µM
[7] = second compound 0.1 µM, first compound 0.0316 µM
[8] = second compound 0.1 µM, first compound 0.1 µM
[9] = second compound 0.1 µM, first compound 0.316 µM
[10] = second compound 0.1 µM, first compound 1 µM
[11] = second compound 0.1 µM, first compound 3.16 µM
[12] = second compound 0.1 µM, first compound 10 µM
[13] = second compound 0.316 µM, first compound 0.0316 µM
[14] = second compound 0.316 µM, first compound 0.1 µM
[15] = second compound 0.316 µM, first compound 0.316 µM
[16] = second compound 0.316 µM, first compound 1 µM
[17] = second compound 0.316 µM, first compound 3.16 µM
[18] = second compound 0.316 µM, first compound 10 µM
[19] = second compound 1 µM, first compound 0.0316 µM
[20] = second compound 1 µM, first compound 0.1 µM
[21] = second compound 1 µM, first compound 0.316 µM
[22] = second compound 1 µM, first compound 1 µM
[23] = second compound 1 µM, first compound 3.16 µM
[24] = second compound 1 µM, first compound 10 µM
[25] = second compound 3.16 µM, first compound 0.0316 µM
[26] = second compound 3.16 µM, first compound 0.1 µM
[27] = second compound 3.16 µM, first compound 0.316 µM
[28] = second compound 3.16 µM, first compound 1 µM
[29] = second compound 3.16 µM, first compound 3.16 µM
[30] = second compound 3.16 µM, first compound 10 µM
[31] = second compound 10 µM, first compound 0.0316 µM
[32] = second compound 10 µM, first compound 0.1 µM
[33] = second compound 10 µM, first compound 0.316 µM
[34] = second compound 10 µM, first compound 1 µM
[35] = second compound 10 µM, first compound 3.16 µM
[36] = second compound 10 µM, first compound 10 µM
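Note: spheroids exposed to compounds for 7 days before readout.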

C#Cc1c(F)ccc2cc(O)cc(-c3ncc4c(N5CC6CCC(C5)N6)nc(OCC56CCCN5CC(F)C6)nc4c3F)c12 (stereo not drawn) + CNC(=O)c1ccc(Nc2nc(OC3CCCC3)c3c(-c4ccc5nc(C)oc5c4)c[nH]c3n2)c(OC)c1
active: viability, T/C [24] 7.84% | viability, T/C [28] 11.3% | viability, T/C [29] 9.18% | viability, T/C [30] 6.34% | viability, T/C [35] 10.3% | viability, T/C [36] 5.25%
35 nM: IC50 (second compound 0.1 µM)
40.1 nM: IC50 (second compound 0.0316 µM)
< 31.6 nM: IC50 (second compound 0.316 µM) | IC50 (second compound 1 µM) | IC50 (second compound 3.16 µM) | IC50 (second compound 10 µM)
inactive: viability, T/C [1] 52.8% | viability, T/C [2] 41.1% | viability, T/C [3] 32.7% | viability, T/C [4] 32.5% | viability, T/C [5] 29.4% | viability, T/C [6] 22.4% | viability, T/C [7] 50.7% | viability, T/C [8] 43.8% | viability, T/C [9] 33.5% | viability, T/C [10] 27.5% | viability, T/C [11] 26% | viability, T/C [12] 15.1% | viability, T/C [13] 37.8% | viability, T/C [14] 30.9% | viability, T/C [15] 19.4% | viability, T/C [16] 12.7% | viability, T/C [17] 13.8% | viability, T/C [18] 12.1% | viability, T/C [19] 16.7% | viability, T/C [20] 12.7% | viability, T/C [21] 12.2% | viability, T/C [22] 12.7% | viability, T/C [23] 10.9% | viability, T/C [25] 15.9% | viability, T/C [26] 12.7% | viability, T/C [27] 11.3% | viability, T/C [31] 17.9% | viability, T/C [32] 12.4% | viability, T/C [33] 11.5% | viability, T/C [34] 12%

C=C(F)C(=O)N1CCN(c2nc(OCC3CCCN3C)nc3c2CCN(c2cccc4cccc(Cl)c24)C3)CC1CC#N (stereo not drawn) + CNC(=O)c1ccc(Nc2nc(OC3CCCC3)c3c(-c4ccc5nc(C)oc5c4)c[nH]c3n2)c(OC)c1
5840 nM: IC50 (second compound 0.0316 µM)
< 31.6 nM: IC50 (second compound 0.316 µM) | IC50 (second compound 1 µM) | IC50 (second compound 3.16 µM) | IC50 (second compound 10 µM)
active: viability, T/C [6] 1.38% | viability, T/C [12] 0.85% | viability, T/C [18] 0.19% | viability, T/C [36] 0.25%
4820 nM: IC50 (second compound 0.1 µM)
inactive: viability, T/C [1] 111% | viability, T/C [2] 114% | viability, T/C [3] 109% | viability, T/C [4] 109% | viability, T/C [5] 106% | viability, T/C [7] 96.9% | viability, T/C [8] 85% | viability, T/C [9] 75.7% | viability, T/C [10] 89.8% | viability, T/C [11] 78.3% | viability, T/C [13] 39.6% | viability, T/C [14] 36.1% | viability, T/C [15] 38.2% | viability, T/C [16] 37.2% | viability, T/C [17] 39.5% | viability, T/C [19] 35.2% | viability, T/C [20] 27.1% | viability, T/C [21] 30.4% | viability, T/C [22] 36.5% | viability, T/C [23] 31.1% | viability, T/C [24] 0.5% | viability, T/C [25] 29.8% | viability, T/C [26] 27.9% | viability, T/C [27] 28.5% | viability, T/C [28] 34.6% | viability, T/C [29] 27.2% | viability, T/C [30] 0.29% | viability, T/C [31] 28.2% | viability, T/C [32] 24.4% | viability, T/C [33] 26.5% | viability, T/C [34] 25.3% | viability, T/C [35] 19.2%

C=CC(=O)N1CCN(c2nc(=O)n(-c3c(C)ccnc3C(C)C)c3nc(-c4c(O)cccc4F)c(F)cc23)C(C)C1 (stereo not drawn) + CNC(=O)c1ccc(Nc2nc(OC3CCCC3)c3c(-c4ccc5nc(C)oc5c4)c[nH]c3n2)c(OC)c1
< 31.6 nM: IC50 (second compound 1 µM) | IC50 (second compound 3.16 µM) | IC50 (second compound 10 µM)
62.5 nM: IC50 (second compound 0.316 µM)
> 10000 nM: IC50 (second compound 0.0316 µM) | IC50 (second compound 0.1 µM)
inactive: viability, T/C [1] 103% | viability, T/C [2] 113% | viability, T/C [3] 118% | viability, T/C [4] 124% | viability, T/C [5] 122% | viability, T/C [6] 115% | viability, T/C [7] 107% | viability, T/C [8] 113% | viability, T/C [9] 101% | viability, T/C [10] 119% | viability, T/C [11] 113% | viability, T/C [12] 120% | viability, T/C [13] 52% | viability, T/C [14] 48.1% | viability, T/C [15] 48% | viability, T/C [16] 47% | viability, T/C [17] 47.5% | viability, T/C [18] 45% | viability, T/C [19] 28.5% | viability, T/C [20] 30.5% | viability, T/C [21] 34% | viability, T/C [22] 32.6% | viability, T/C [23] 37.3% | viability, T/C [24] 31.4% | viability, T/C [25] 32.8% | viability, T/C [26] 24% | viability, T/C [27] 30.9% | viability, T/C [28] 30.9% | viability, T/C [29] 28.5% | viability, T/C [30] 25.4% | viability, T/C [31] 25.2% | viability, T/C [32] 25.6% | viability, T/C [33] 25.6% | viability, T/C [34] 26.1% | viability, T/C [35] 30.2% | viability, T/C [36] 23.5%

CC(CO)NC(=O)c1cc(-c2ccc(Cl)cc2)nn(-c2cnn(C)c2)c1=O (stereo not drawn) + CNC(=O)c1ccc(Nc2nc(OC3CCCC3)c3c(-c4ccc5nc(C)oc5c4)c[nH]c3n2)c(OC)c1
> 10000 nM: IC50 (second compound 0.0316 µM) | IC50 (second compound 0.1 µM)
< 31.6 nM: IC50 (second compound 0.316 µM) | IC50 (second compound 1 µM) | IC50 (second compound 3.16 µM) | IC50 (second compound 10 µM)
inactive: viability, T/C [1] 105% | viability, T/C [2] 96.5% | viability, T/C [3] 111% | viability, T/C [4] 112% | viability, T/C [5] 100% | viability, T/C [6] 77% | viability, T/C [7] 105% | viability, T/C [8] 105% | viability, T/C [9] 96.2% | viability, T/C [10] 99.7% | viability, T/C [11] 101% | viability, T/C [12] 80.8% | viability, T/C [13] 46% | viability, T/C [14] 41.3% | viability, T/C [15] 47.2% | viability, T/C [16] 37.1% | viability, T/C [17] 45.2% | viability, T/C [18] 43.5% | viability, T/C [19] 33.7% | viability, T/C [20] 32.9% | viability, T/C [21] 32.8% | viability, T/C [22] 31.6% | viability, T/C [23] 30.8% | viability, T/C [24] 32.1% | viability, T/C [25] 24.5% | viability, T/C [26] 31.7% | viability, T/C [27] 30.2% | viability, T/C [28] 30.5% | viability, T/C [29] 34.9% | viability, T/C [30] 29% | viability, T/C [31] 30.3% | viability, T/C [32] 31.7% | viability, T/C [33] 31.8% | viability, T/C [34] 27.6% | viability, T/C [35] 29.3% | viability, T/C [36] 24.7%
